Measurements taken from ChEMBL document CHEMBL3352733, “Liver x receptor agonists for the treatment of coronary heart disease and other disorders” (ACS Med Chem Lett, 2014).

The molecules below were run against T1, Oxysterols receptor LXR-beta (Homo sapiens) (UniProt P55055) (assay: Agonist activity at human LXRbeta expressed in CV1 cells after 20 hrs by luciferase reporter co-transfection assay relative to control). Conditions: CV-1.
T1 sequence (whole entry): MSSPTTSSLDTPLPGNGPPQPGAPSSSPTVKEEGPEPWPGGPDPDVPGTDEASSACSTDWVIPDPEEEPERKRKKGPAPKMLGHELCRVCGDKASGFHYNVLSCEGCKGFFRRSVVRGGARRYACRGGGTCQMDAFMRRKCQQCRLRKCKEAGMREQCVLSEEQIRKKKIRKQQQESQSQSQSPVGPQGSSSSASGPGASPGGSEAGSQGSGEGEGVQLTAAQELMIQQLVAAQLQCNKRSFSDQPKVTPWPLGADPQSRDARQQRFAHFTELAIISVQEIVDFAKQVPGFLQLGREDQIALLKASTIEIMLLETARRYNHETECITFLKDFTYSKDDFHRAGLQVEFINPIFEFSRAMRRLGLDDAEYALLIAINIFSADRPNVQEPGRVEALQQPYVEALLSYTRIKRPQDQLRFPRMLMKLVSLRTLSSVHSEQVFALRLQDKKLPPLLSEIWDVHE
Type: cell-based

Row | Efficacy [%] | SMILES
1 | 116 | Cc1nc(C(F)(F)F)c(Cl)n1-c1ccc(-c2cc(F)c(CO)c(S(C)(=O)=O)c2)cc1-n1nncc1-c1ccc(OC(F)(F)F)cc1
2 | 100 | Cc1nc(C(F)(F)F)cn1-c1ccc(-c2cccc(S(C)(=O)=O)c2)cc1-n1nncc1Cc1cccc(Cl)c1
3 | 85 | Cc1nc(C(F)(F)F)cn1-c1c(F)cc(-c2cccc(S(C)(=O)=O)c2)cc1-n1nncc1-c1ccc(Cl)cc1
4 | 75 | Cc1nc(C(F)(F)F)cn1-c1ccc(-c2cc(F)c(CO)c(S(C)(=O)=O)c2)cc1-c1nc(C(C)C)oc1-c1ccc(OC(F)(F)F)cc1
